Measurements: patent US20060128614A1, “Antimicrobial peptides with reduced hemolysis and methods of their use” (priority 2002, published 2006)
Values after ≈ are worked out from the molar mass of the structure shown. Where two headings read alike, the source gives them in different places. Non-standard residues stand in square brackets, D forms with d. Residues, ends and D or L forms follow the SMILES beside them. 2Nal = N[C@@H](Cc1ccc2ccccc2c1)C(=O)O

How the values were obtained:
[1] = qualitative statement
[2] = test system: Gram-positive and Gram-negative bacteria; test: Antimicrobial activity of Trp template peptides; assay type: cell-based; settings: qualitative statement
[3] = test system: E. coli; assay type: cell-based, Escherichia coli
Method: (§1) The in vitro antimicrobial activities of antimicrobial agents were tested using standard NCCLS bacterial and fungi inhibition assays or minimum inhibition concentration (MIC) tests. The MIC value is the lowest concentration of peptide at which the visible growth of test organisms was inhibited and reduced. Overnight cultures of the test organisms were diluted to produce an inoculum containing approximately […] in Meuller-Hinton broth (MHB). From the peptide stock solution, serial dilutions of the peptides into […] were prepared and all wells of a 96-well microtiter plate were subsequently inoculated with the diluted culture of the test organisms. After 18 hours of incubation at 37°, the results were assayed for turbidity as an indicator of cell growth. MIC values for the peptides are shown in Table 3 and Table 4 and FIGS. 1(A), 1(B), 1 (C) and 1 (D) show survival rates for Pac-625 and Pac-626.

[4] = test system: human red blood cells (RBC); assay type: cell-based
Method: Pac-401, Pac-403, Pac-625 and Pac-626 were tested for hemolysis against human red blood cells (RBC). The RBCs with EDTA were rinsed 3 times with PBS (800 g, 10 min) and re-suspended in PBS. The RBCs were diluted into 10% with phosphate-buffered saline and placed […] into each eppendorf. The peptides dissolved in PBS were then added to 50 μl of 10% solution of RBCs and incubated for an hour at 37° C. (final RBC concentration, 5% v/v). The samples were centrifuged at 800 g for 10 min […]. Various concentrations of peptides were incubated with pretreated RBC and the percentage of hemolysis determined.

[5] = test system: Candida albicans; assay type: cell-based
Method: as §1

[6] = test system: S. aureus; assay type: cell-based, Staphylococcus aureus
Method: as §1

[7] = test system: B. subtilis; assay type: cell-based, Bacillus subtilis
Method: as §1

[8] = test system: S. epidermidis; assay type: cell-based, Staphylococcus epidermidis
Method: as §1

[9] = test system: outer membrane of E. coli; test: NPN uptake assay, outer membrane permeabilization; assay type: cell-based; settings: intact cells of E. coli
Method: The outer membrane permeabilization activity of the peptide variants was determined by the 1-N-phenylnaphthylamine (NPN) uptake assay, using intact cells of E. coli. […] Since NPN is hydrophobic, it provides a direct measurement of the degree of outer membrane permeability. E. coli take up little or no NPN in a general condition. In the presence of permeabilizer compounds (EDTA, polymyxin B, Neomycin, or antimicrobial peptides), NPN partitioned into the bacterial outer membrane results in an increase in fluorescence. Fluorescence will vary with the concentration of peptide.
One ml of overnight culture was used to inoculate 50 ml of media and incubated at 37° C. with shaking. The culture was permitted to grow to an OD600 of 0.4 to 0.6, cells were spun down at 3500 rpm for 10 minutes, washed, and re-suspended in buffer to an OD600 of 0.5. The OD600 was recorded, 1 ml of cells (OD600=0.5) was added to the cuvette and measured after 2-5 seconds. 20 μl NPN 0.5 mM, shaken to mix, was added and measured after 2-5 seconds. 10 ul antibiotic 100× desired final concentration was added, shaken to mix, and measured until the maximal value was reached within 1 to 5 minutes. The concentration of peptide leading to 50% of the maximum increase in NPN uptake was recorded as the P50.

[10] = test system: B. cereus; assay type: cell-based, Bacillus cereus
Method: as §1

## CC[C@H](C)[C@H](NC(=O)[C@H](Cc1c[nH]c2ccccc12)NC(=O)[C@H](CCCNC(=N)N)NC(=O)[C@@H](NC(=O)[C@H](Cc1c[nH]c2ccccc12)NC(=O)[C@H](CCCNC(=N)N)NC(=O)[C@H](CCCNC(=N)N)NC(=O)[C@H](Cc1c[nH]c2ccccc12)NC(=O)[C@H](CCCCN)NC(C)=O)C(C)C)C(N)=O [Pac-525, Ac-KWRRWVRW1-NH2] (Ac-KWRRWVRWI-NH2)
[1]
  hemolytic activity: reduced hemolytic activity
[2]
  antimicrobial activity: improved activity against both Gram-positive and Gram-negative bacteria

## CC[C@H](C)[C@H](NC(=O)[C@H](Cc1ccc2ccccc2c1)NC(=O)[C@H](CCCNC(=N)N)NC(=O)[C@@H](NC(=O)[C@H](Cc1ccc2ccccc2c1)NC(=O)[C@H](CCCNC(=N)N)NC(=O)[C@H](CCCNC(=N)N)NC(=O)[C@H](Cc1ccc2ccccc2c1)NC(=O)[C@H](CCCCN)NC(C)=O)C(C)C)C(N)=O [Pac-625 L, K (2-Nal) R R (2-Nal) V R (2-Nal) I] (Ac-K[2Nal]RR[2Nal]VR[2Nal]I-NH2)
[3]
  MIC against E. coli: 2 µg/mL (≈ 1.37 µM)
[3]; 18 h
  MIC against E. coli: 2 µg/mL (≈ 1.37 µM)
[4]
  % lysis @ 5 μg/ml: 0.82%
  % lysis @ 50 μg/ml: 7.3%
  % lysis @ 500 μg/ml: 15%
[5]
  MIC Candida albicans: 16 µg/mL (≈ 11 µM)
[6]
  MIC against S. aureus: 4 µg/mL (≈ 2.74 µM)
[6]; 18 h
  MIC against S. aureus: 4 µg/mL (≈ 2.74 µM)
[7]
  MIC B. subtilis: 4 µg/mL (≈ 2.74 µM)
[8]
  MIC S. epidermidis: 2 µg/mL (≈ 1.37 µM)
[9]
  P50 (concentration of peptide leading to 50% of the maximum increase in NPN uptake): 2 µg/mL

## CC[C@H](C)[C@H](NC(C)=O)C(=O)N[C@@H](Cc1ccc2ccccc2c1)C(=O)N[C@@H](CCCNC(=N)N)C(=O)N[C@H](C(=O)N[C@@H](Cc1ccc2ccccc2c1)C(=O)N[C@@H](CCCNC(=N)N)C(=O)N[C@@H](CCCNC(=N)N)C(=O)N[C@@H](Cc1ccc2ccccc2c1)C(=O)N[C@@H](CCCCN)C(N)=O)C(C)C [Pac-626 L, I (2-Nal) R V (2-Nal) R R (2-Nal) K] (Ac-I[2Nal]RV[2Nal]RR[2Nal]K-NH2)
[3]
  MIC against E. coli: 4 µg/mL (≈ 2.74 µM)
[3]; 18 h
  MIC against E. coli: 4 µg/mL (≈ 2.74 µM)
[4]
  % lysis @ 5 μg/ml: 0.81%
  % lysis @ 50 μg/ml: 7.2%
  % lysis @ 500 μg/ml: 14%
[5]
  MIC Candida albicans: 32 µg/mL (≈ 21.9 µM)
[6]
  MIC S. aureus: 4 µg/mL (≈ 2.74 µM)
  MIC against S. aureus: 4 µg/mL (≈ 2.74 µM)
[6]; 18 h
  MIC against S. aureus: 4 µg/mL (≈ 2.74 µM)
[10]
  MIC B. cereus: 4 µg/mL (≈ 2.74 µM)
[9]
  P50 (concentration of peptide leading to 50% of the maximum increase in NPN uptake): 2 µg/mL
